Reference: patent publication US7196105B2, “Treatment of human multiple myeloma by curcumin” (Research Development Foundation, priority 2002, dated 2007)
“Also recorded” adds a separate entry of the source.

Columns and labels:
IκB kinase = target: T1, IκB kinase (Homo sapiens, UniProt O14920+O15111); test: IκB kinase assay on IKK immunoprecipitated from curcumin-treated U266 cells; type: cell-based; details: curcumin 50 μM, time course, GST-IκBα substrate
T1 construct: 200 μg cytoplasmic extracts were immunoprecipitated with 1 μg of anti-IKKa and IKKb antibodies each; endogenous in cells; host or cells: U266 human multiple myeloma cells (cytoplasmic extract, immunoprecipitate on protein A/G-Sepharose)
T1 sequence (O15111 whole entry): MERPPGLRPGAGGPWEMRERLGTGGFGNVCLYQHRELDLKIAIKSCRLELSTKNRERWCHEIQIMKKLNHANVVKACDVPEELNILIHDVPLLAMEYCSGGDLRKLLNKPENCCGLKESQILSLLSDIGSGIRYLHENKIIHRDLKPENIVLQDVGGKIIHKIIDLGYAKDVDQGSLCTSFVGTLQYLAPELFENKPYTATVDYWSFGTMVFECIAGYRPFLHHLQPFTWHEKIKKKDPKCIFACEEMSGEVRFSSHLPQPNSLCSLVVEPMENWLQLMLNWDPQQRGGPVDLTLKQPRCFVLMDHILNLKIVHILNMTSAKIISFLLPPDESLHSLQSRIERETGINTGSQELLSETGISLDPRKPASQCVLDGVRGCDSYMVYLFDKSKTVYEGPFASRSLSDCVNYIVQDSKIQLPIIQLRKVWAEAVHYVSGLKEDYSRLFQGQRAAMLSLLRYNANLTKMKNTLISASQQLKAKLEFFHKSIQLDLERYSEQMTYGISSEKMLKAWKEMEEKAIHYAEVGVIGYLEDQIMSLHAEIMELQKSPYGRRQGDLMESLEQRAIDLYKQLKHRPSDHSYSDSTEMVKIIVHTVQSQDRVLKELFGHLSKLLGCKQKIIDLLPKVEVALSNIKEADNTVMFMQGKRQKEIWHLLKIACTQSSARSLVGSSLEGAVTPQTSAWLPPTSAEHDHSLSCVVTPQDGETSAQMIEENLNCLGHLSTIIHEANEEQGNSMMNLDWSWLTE
T1 sequence (O14920 whole entry): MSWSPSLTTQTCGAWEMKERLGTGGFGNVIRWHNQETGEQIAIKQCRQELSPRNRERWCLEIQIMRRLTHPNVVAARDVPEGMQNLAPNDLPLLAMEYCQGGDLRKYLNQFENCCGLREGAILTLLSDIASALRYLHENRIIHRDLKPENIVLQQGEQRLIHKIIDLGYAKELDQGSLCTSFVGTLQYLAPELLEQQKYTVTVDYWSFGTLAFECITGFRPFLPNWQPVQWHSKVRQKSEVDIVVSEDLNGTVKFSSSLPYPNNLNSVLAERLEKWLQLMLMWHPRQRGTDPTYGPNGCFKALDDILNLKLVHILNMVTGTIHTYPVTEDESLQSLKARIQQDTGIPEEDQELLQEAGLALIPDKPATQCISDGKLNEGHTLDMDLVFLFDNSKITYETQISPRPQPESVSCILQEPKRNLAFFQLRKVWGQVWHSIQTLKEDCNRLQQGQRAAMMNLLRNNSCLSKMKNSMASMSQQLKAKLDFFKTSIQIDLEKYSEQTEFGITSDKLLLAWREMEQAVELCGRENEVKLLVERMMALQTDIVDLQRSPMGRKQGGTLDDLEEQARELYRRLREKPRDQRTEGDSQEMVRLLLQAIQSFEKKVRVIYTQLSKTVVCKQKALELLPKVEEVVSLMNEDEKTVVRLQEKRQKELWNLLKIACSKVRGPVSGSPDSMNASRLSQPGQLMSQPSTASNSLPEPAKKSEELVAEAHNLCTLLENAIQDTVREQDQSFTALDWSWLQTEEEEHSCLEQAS
T1 sequence (Q9Y6K9 whole entry partner): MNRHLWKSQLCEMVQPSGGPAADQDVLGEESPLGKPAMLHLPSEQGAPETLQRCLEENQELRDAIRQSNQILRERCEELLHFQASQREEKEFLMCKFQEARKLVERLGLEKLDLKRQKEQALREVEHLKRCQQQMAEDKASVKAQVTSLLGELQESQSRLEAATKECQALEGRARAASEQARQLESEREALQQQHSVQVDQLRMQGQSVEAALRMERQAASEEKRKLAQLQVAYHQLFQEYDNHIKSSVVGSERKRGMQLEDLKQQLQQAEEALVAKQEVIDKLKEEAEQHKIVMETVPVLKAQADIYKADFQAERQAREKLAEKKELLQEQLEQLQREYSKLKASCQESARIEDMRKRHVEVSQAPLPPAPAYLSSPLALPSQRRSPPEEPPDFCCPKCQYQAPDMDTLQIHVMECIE
Procedure: Five million U266 cells/2.5 ml were treated with curcumin (50 μM) for the indicated times and cytoplasmic extracts were prepared. FIG. 3A: Level of phosphorylated IκBα determined by Western blotting. FIG. 3B: Immunoprecipitated IκB kinase and kinase assay of IκB kinase activity (upper panel) or Western blotting for the analysis of total IKKα and IKKβ proteins in cytoplasmic extracts (lower panel). FIG. 3C: IκB kinase was immunoprecipitated and kinase assay was performed in the absence or presence of the indicated concentrations of curcumin (upper panel). Lower panel indicates the amount of GST-IκBα protein stained with Coomassie Blue in each well in the same dried gel.
The IkB kinase assay was performed with a modified method as described earlier (Manna et al., 2000). Briefly, 200 μg cytoplasmic extracts were immunoprecipitated with 1 μg of anti-IKKa and IKKb antibodies each, and the immune complexes so formed were precipitated with 0.01 ml of protein A/G-Sepharose beads for 2 hour. The beads were washed first with lysis buffer and then with kinase assay buffer (50 mM HEPES pH 7.4, 20 mM MgCl2, and 2 mM DTT). The immune complex was then assayed for kinase activity using kinase assay buffer containing […] [g-P^32]ATP, 10 μM unlabeled ATP, and 2 μg/sample glutathione S-transferase-IkBa (1–54). […] Radioactive bands of the dried gel were visualized and quantitated by PhosphorImager.

U266 cells [1] = test: Cell viability by MTT method; type: cell-based, human; details: U266, 24 h, different concentrations
Procedure: The results are shown as the mean (±s.d.) percent viability from triplicate cultures.
(§1) Briefly, cells (5000/well) were incubated in triplicate in a 96-well plate in the presence or absence of indicated test samples in a final volume of 0.1 ml for 24 h at 37° C. Thereafter, 0.025 ml of MTT solution (5 mg/ml in PBS) was added to each well. After a 2 h incubation at 37 ° C., 0.1 ml of extraction buffer (20% SDS, 50% dimethylformamide) was added. Incubation was continued for overnight at 37 ° C., and then the OD at 590 nm was measured using a 96-well multiscanner autoreader (Dynatech MR 5000), with extraction buffer as blank. Percent cell viability=(OD of the experiment samples/OD of the control)×100.

U266 cells [2] = test: Cytotoxic effect of vincristine with or without curcumin (MTT); type: cell-based, human; details: U266, curcumin 10 μM alone, 24 h
Procedure: as §1, with “The antiproliferative effects of curcumin against different multiple myeloma cell lines were determined by the MTT dye uptake method as described earlier (Manna et al., 1998). Briefly,” for “Briefly,”

Question: Which “IκB kinase activity of IKK immunoprecipitated from treated cells” value (IκB kinase) does the source give for `COc1cc(/C=C/C(=O)CC(=O)/C=C/c2ccc(O)c(OC)c2)ccc1O` [curcumin, diferuloylmethane] here?
Answer: decreased in kinase activity

Question: And the “cell viability / mitochondrial activity (MTT)” value (U266 cells [1])?
Answer: suppressed mitochondrial activity; also recorded: decreased cell survival in a dose-dependent manner

Question: And the cells killed (U266 cells [2])?
Answer: approximately 35%
